What was measured:
HCT 116 cells = assay: apoptosis induction by Western blot of cleaved caspase 3 and PARP; format: cell-based, human; details: 10 h
Experimental: (§1) Cells were seeded onto 100 mm or 60 mm culture plates and upon reaching ~70% confluency, they were subjected to drug treatment for indicated durations. Pellets of compound-treated or DMSO control cells comprising both attached and floating cells were collected and lysed in lysis buffer (25 mM Tris-HCl pH 7.5, 100 mM NaCl, 2.5 mM EDTA, 2.5 mM EGTA, 20 mM NaF, 1 mM Na3VO4, 20 mM sodium β-glycerophosphate, 10 mM sodium pyrophosphate, 0.5% Triton X-100) with freshly added protease inhibitor cocktail (Roche Diagnostics). Prior to being used in Western blot analysis and/or cellular TrxR, GR, Trx and GPx activity determination, lysates were precleared by centrifugation and protein concentrations were determined using a modified Bradford assay (Bio-Rad Laboratories) as described in the manufacturer's manual. This procedure for collecting whole cell lysate was used for all experiments except for the Trx-redox state determination experiment. Equal amounts of protein (50 μg) in each lysate sample were separated by SDS-PAGE, followed by electroblotting onto nitrocellulose membranes. Electroblotted proteins on membranes were probed with a primary antibody and subsequently by a secondary antibody conjugated to HRP.

[1] = target: T1, TrxR in Keap1-null (Keap1−/−) MEFs (Mus musculus, UniProt Q9JMH6); assay: TrxR activity in Keap1-null MEF lysates; format: cell-based; details: 5 h treatment, 20 to 40 μM
T1 sequence (Q9JMH6 115-613 limits assumed): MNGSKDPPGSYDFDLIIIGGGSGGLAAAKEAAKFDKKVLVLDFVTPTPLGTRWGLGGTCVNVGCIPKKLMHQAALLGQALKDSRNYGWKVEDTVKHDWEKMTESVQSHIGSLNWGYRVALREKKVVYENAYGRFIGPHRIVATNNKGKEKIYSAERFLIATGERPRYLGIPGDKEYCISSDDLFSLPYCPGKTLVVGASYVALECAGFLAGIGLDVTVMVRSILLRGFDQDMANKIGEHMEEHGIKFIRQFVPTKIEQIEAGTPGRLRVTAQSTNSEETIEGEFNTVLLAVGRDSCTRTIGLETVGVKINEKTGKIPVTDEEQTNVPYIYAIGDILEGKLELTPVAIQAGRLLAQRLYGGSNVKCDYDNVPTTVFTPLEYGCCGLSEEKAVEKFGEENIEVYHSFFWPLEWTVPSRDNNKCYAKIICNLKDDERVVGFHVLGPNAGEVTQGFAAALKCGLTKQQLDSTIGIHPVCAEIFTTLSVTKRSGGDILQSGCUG
Experimental: as §1, with “Equal amounts of protein (50 μg) in each lysate sample were separated by SDS-PAGE, followed by electroblotting onto nitrocellulose membranes. Electroblotted proteins on membranes were probed with a primary antibody and subsequently by a secondary antibody conjugated to HRP.” left out
Freshly collected cell lysates were used for measurement of activity of cellular Trx and TrxR. […] The amount of free thiols generated from insulin reduction was determined by DTNB reduction at 412 nm using the VersaMax microplate reader. […] For each sample, Trx or TrxR activity was calculated as the absorbance at 412 nm subtracted from that of the corresponding control and expressed as a percentage of the activity measured in DMSO-treated cells.

recombinant rat TrxR = target: T2, recombinant rat TrxR (Rattus norvegicus, UniProt O89049); assay: juglone reduction versus DTNB reduction by recombinant rat TrxR; format: biochemical; details: 15 min incubation, 15 nM TrxR, 250 μM NADPH, 1-100 μM
T2 construct: made in house
T2 sequence (O89049 1-499): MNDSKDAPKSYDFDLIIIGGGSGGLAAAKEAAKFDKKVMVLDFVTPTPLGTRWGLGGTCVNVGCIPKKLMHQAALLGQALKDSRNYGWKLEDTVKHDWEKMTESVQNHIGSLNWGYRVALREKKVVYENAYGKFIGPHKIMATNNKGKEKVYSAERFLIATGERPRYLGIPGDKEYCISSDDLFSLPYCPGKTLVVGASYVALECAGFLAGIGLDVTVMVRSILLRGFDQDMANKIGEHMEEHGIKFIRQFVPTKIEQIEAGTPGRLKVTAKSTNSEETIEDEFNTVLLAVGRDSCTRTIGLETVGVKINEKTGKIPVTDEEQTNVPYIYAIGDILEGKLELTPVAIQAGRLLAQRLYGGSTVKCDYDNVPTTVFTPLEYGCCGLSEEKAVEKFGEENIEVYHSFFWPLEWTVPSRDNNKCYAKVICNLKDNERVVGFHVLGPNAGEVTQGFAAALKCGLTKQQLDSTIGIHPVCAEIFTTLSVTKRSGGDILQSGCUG
Experimental: The assay, designed to determine the ability of mammalian TrxR to reduce juglone at the N-terminal active center, was performed as described previously. Briefly, 2 μl of diluted DMSO stocks of compounds 4 and 5 (final concentrations 1-100 μM) were incubated in 198 μl of 15 nM recombinant rat TrxR, 250 μM NADPH and 0.1 mg/ml BSA in TE buffer at room temperature in 96-well plates for 15 min. 100 mM stock solution of juglone in DMSO was prepared fresh for each experiment and diluted in TE buffer to a 300 μM working solution. The incubation was terminated by the addition of 100 μl of 300 μM juglone solution (final concentration 100 μM), and NADPH consumption was monitored at 340 nm for 5 min using the VersaMax microplate reader. The linear decrease in NADPH absorbance was used for calculating juglone reduction activity. The results were expressed as % of TrxR juglone reduction activity of drug-treated sample over that of DMSO-treated sample.
The experiments were performed at the same time with a corresponding DTNB reduction assay as described above with modifications so as to keep the experimental parameters and conditions similar to those in the juglone reduction assay. […] Following 15 min incubation with compound 4 or 5, 50 μl of 8.75 μM DTNB solution (final concentration 1.75 μM) was added to each well and DTNB reduction was measured at 412 nm for 2 min.

Compound	apoptosis induction (cleaved caspase 3 and PARP) (HCT 116 cells)	TrxR activity in Keap1−/− MEFs [1]	juglone reduction compared with DTNB reduction by inhibited TrxR (recombinant rat TrxR)
CCCCN1C(=O)/C(=C/C(C)=O)c2ccccc21 [Compound 4]	Dose-dependent induction of apoptosis	elevated TrxR activity	juglone reduction was more preserved than DTNB reduction
CC(=O)/C=C1/C(=O)N(Cc2ccccc2)c2ccccc21 [Compound 5]	Dose-dependent induction of apoptosis	elevated TrxR activity	juglone reduction was more preserved than DTNB reduction
